Measured values reported in patent publication US7897364B2, “Method for determining inhibitors of neurotrypsin” (University of Zurich, priority 2005, dated 2011).
Entries after “also recorded” stand apart in the source; their conditions may differ.

Key:
mouse neurotrypsin = biological target: T1, mouse neurotrypsin (Mus musculus, UniProt O08762); assay: Dose dependence of neurotrypsin inhibition (agrin-EGFP cleavage, Western blot); type: biochemical; settings: 0 to 200 μM compound; agrin-EGFP substrate; Western blot quantification; read-out: IC50 value (half-maximum amount of product)
T1 construct: made in house; host or cells: mouse myeloma cell line J558L
T1 sequence (O08762 22-761): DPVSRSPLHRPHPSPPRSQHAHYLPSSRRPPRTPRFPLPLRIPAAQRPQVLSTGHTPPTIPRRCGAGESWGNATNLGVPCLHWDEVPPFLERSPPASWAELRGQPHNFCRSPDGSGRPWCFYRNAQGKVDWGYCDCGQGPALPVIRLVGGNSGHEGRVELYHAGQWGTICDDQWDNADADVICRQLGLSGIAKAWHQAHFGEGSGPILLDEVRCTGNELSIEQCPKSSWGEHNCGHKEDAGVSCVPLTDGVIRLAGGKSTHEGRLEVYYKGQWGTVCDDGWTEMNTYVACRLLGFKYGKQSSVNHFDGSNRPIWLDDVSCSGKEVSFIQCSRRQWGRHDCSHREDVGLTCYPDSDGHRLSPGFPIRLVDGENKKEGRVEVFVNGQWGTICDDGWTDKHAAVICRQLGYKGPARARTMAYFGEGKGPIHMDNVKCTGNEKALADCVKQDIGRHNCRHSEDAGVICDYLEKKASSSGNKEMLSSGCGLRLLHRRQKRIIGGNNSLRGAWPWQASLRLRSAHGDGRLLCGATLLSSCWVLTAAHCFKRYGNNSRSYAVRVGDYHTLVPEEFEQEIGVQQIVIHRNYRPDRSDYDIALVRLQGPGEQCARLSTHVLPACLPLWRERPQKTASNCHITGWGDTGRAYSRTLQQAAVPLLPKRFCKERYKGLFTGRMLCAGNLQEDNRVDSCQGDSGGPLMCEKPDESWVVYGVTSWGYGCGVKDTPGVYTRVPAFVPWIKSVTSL
Description: (A) Western blot detection of the 150 kDa C-terminal fragment of agrin (Ag-CF) generated by neurotrypsin-mediated cleavage of agrin-EGFP in dependence of the concentration of compound No. 7, N^1-amidino-N^4-(3,5-dibromosalicylidene)-sulfanilamide.
(B) Graphic plot of the intensity data from (A) against the inhibitor concentration with I=100% intensity for agrin+mouse neurotrypsin without addition of inhibitor compound No. 7.
(§1) The inhibitory activity of small-molecule compounds on the catalytic activity of neurotrypsin is measured in 150 mM NaCl, 5 mM CaCl2, 5% DMSO, 0.1% PEG 6000, and 20 mM MOPS, pH 7.5 in 0.5 ml low protein-binding Eppendorf tubes in a total volume of 15 μl. Human or murine neurotrypsin or catalytically active truncated versions of neurotrypsin are used at a concentration that results in cleavage of 80% of the substrate within 3 hours. As substrate, engineered soluble agrin, for example 0.1-1 μM agrin-EGFP (Example 20) or 0.1-3 μM engineered agrin-C45 (Example 21), is used. Inhibitor solution in 10 mM MOPS, pH 7.5, containing 5% DMSO is added to a final concentration of either 25 or 150 μM. […]
Different concentrations of compound No. 7 from 0 to 200 μM were tested with the assay described in Example 27 with engineered agrin-EGFP as substrate. The generated product was detected by Western blot (FIG. 17 A) and quantified (FIG. 17 B).

Kallikrein = biological target: T2, Kallikrein (Sus scrofa, UniProt P00752); assay: Specificity test, photometric pNA peptide substrate assay: kallikrein; type: biochemical, porcine; settings: 100 μM compound; substrate Bz-FVR-pNA; 25° C.
T2 construct: Kallikrein from porcine pancreas; purchased Sigma Aldrich Chemie GmbH; host or cells: porcine pancreas
Protocol: (§2) To check the specificity of a compound found to have an inhibitory effect on human neurotrypsin, standard enzyme kinetic measurements with a set of common serine proteases were performed. A standard photometric assay with commercially available proteases and para-nitroanilide-coupled small peptide substrates was used.
(§3) Kallikrein from porcine pancreas (43 U/mg solid; Sigma Aldrich Chemie GmbH). Plasmin from human plasma (3.2 U/mg solid; Sigma Aldrich Chemie GmbH).
(§4) Bz-FVR-pNA: N-Benzoyl-Phe-Val-Arg-p-nitroanilide HCl, Bachem AG, CH-4416 Bubendorf, Switzerland.
(§5) The assay was performed in 100 mM Tris-HCl, 150 mM NaCl, 1 mM CaCl2, 5% DMSO, 0.1% PEG 6000, pH 8.0, with the appropriate amount of protease to measure initial velocities and varying amounts of peptide-p-nitroanilide substrates in a range smaller than 0.1 times KM. For inhibition studies 100 μM compound No. 7 were used. Measurements were done at 25° C. in a Cary 50 Spectrophotometer (VARIAN). Initial velocities were determined using various substrate concentrations below 0.1 times KM to be in the range of direct dependency of the initial velocity from the substrate concentration. Initial velocities were plotted against substrate concentrations in the absence or the presence of the candidate inhibitor No. 7. The compound was used in a concentration of 100 μM.

Plasmin = biological target: T3, Plasmin (Homo sapiens, UniProt P00747); assay: Specificity test, photometric pNA peptide substrate assay: plasmin; type: biochemical; settings: 100 μM compound; substrate N-Tosyl-GPK-pNA; 25° C.
T3 construct: Plasmin from human plasma; purchased Sigma Aldrich Chemie GmbH; host or cells: human plasma
Protocol: as §2, §3
N-Tosyl-GPK-pNA: N-Tosyl-Gly-Pro-Lys-p-nitroanilide, #90178, Fluka Chemie AG.
as §5

Trypsin = biological target: T4, Trypsin (Sus scrofa, UniProt P00761); assay: Specificity test, photometric pNA peptide substrate assay: trypsin; type: biochemical, hog; settings: 100 μM compound; substrate Bz-FVR-pNA; 25° C.
T4 construct: Trypsin from hog pancreas; purchased Fluka Chemie AG; host or cells: hog pancreas
Protocol: as §2
Trypsin from hog pancreas (16099 U/mg; Fluka Chemie AG, CH-9471 Buchs, Switzerland).
as §4, §5

Factor Xa = biological target: T5, Factor Xa (Bos taurus, UniProt P00743); assay: Specificity test, photometric pNA peptide substrate assay: factor Xa; type: biochemical, bovine; settings: 100 μM compound; substrate Bz-IEGR-pNA; 25° C.
T5 construct: purchased Sigma Aldrich Chemie GmbH; host or cells: bovine plasma
Protocol: as §2
Factor Xa activated from bovine plasma (6.1 mg protein/ml; Sigma Aldrich Chemie GmbH, D-89552 Steinheim, Germany).
Bz-IEGR-pNA: S-2222, Chromogenix-Instrumentation Laboratory SpA, 1-20128 Milano, Italy.
as §5

Urokinase = biological target: T6, Urokinase (Homo sapiens, UniProt P00749); assay: Specificity test, photometric pNA peptide substrate assay: urokinase; type: biochemical; settings: 100 μM compound; substrate Bz-VGR-pNA; 25° C.
T6 construct: purchased medac Gesellschaft für klinische Spezialpräparate mbH Urokinase HS medac (100000 I.E.)
Protocol: as §2
(§6) Thrombin from bovine plasma (50 NIH/mg, Merck, D-64271 Darmstadt, Germany). Urokinase HS medac (100000 I.E.; medac Gesellschaft für klinische Spezialpräparate mbH, D-22880 Wedel, Germany).
Bz-VGR-pNA: N-Benzoyl-Val-Gly-Arg-p-nitroanilide, Sigma Aldrich Chemie GmbH.
as §5

Thrombin = biological target: T7, Thrombin (Bos taurus, UniProt P00735); assay: Specificity test, photometric pNA peptide substrate assay: thrombin; type: biochemical, bovine; settings: 100 μM compound; substrate Bz-FVR-pNA; 25° C.
T7 construct: Thrombin from bovine plasma; purchased Merck; host or cells: bovine plasma
Protocol: as §2, §6, §4, §5

neurotrypsin = biological target: T8, neurotrypsin (Homo sapiens, UniProt P56730); assay: Western blot-based screening assay for neurotrypsin inhibitors (agrin-EGFP cleavage); type: biochemical; settings: inhibitor 25 or 150 μM; agrin-EGFP substrate; 3 h at 37° C.; intensity of 150-kDa fragment on Western blot
T8 construct: Human or murine neurotrypsin or catalytically active truncated versions of neurotrypsin are used; made in house; host or cells: mouse myeloma cell line J558L
T8 sequence (P56730 21-875): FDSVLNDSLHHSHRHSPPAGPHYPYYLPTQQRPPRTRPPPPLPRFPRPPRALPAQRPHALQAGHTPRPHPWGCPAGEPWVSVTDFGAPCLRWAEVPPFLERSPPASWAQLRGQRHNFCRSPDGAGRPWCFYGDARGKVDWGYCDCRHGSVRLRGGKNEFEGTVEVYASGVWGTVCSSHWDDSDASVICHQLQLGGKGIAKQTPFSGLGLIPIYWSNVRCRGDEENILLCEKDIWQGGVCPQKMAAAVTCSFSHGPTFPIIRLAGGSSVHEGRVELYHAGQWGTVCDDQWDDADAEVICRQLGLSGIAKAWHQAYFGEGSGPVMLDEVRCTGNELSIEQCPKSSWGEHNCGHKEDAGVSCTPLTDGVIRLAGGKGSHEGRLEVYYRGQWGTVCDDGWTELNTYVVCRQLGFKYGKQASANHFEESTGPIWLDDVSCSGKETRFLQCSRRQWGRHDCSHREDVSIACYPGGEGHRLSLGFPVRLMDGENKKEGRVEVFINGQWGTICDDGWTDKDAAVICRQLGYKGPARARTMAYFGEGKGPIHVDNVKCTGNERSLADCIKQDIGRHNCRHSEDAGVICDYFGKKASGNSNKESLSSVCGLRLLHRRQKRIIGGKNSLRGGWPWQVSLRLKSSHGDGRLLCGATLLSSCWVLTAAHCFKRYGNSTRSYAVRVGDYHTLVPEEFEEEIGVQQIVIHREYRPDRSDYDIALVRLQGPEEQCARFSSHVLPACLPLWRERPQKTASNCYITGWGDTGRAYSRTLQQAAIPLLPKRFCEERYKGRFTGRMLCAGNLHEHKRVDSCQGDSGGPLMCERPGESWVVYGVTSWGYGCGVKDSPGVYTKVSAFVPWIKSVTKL
Protocol: Negative control (−): only agrin-EGFP without neurotrypsin. Positive control (+): agrin-EGFP with addition of neurotrypsin.
Compounds were dissolved in DMSO to a final concentration of 10 mM. For the assay the solution in DMSO was diluted with 10 mM MOPS, pH 7.5, to a concentration of 500 μM and 5% DMSO (1:20 dilution). Insoluble and precipitated material was removed by centrifugation (15 min, 16 krcf, RT). The cleared supernatant was used for the inhibition assay, as described in Example 27.
as §1, with “used.” for “used. Inhibitor solution in 10 mM MOPS, pH 7.5, containing 5% DMSO is added to a final concentration of either 25 or 150 μM.”
One way of substrate visualization is Western blotting. […] The intensity of the 150-kDa fragments of agrin-EGFP generated by neurotrypsin-mediated cleavage in the presence of the putative inhibitory compounds (FIG. 16 A) are measured and the relative intensities are plotted (FIG. 16 B).

tPA = biological target: T9, tPA (Homo sapiens, UniProt P00750); assay: Specificity test, photometric pNA peptide substrate assay: tPA; type: biochemical; settings: 100 μM compound; substrate IPR-pNA; 25° C.
T9 construct: purchased Dr. Karl Thomae GmbH Actilyse (10 mg)
Protocol: as §2
tPA: Actilyse (10 mg; Dr. Karl Thomae GmbH, Birkendorfer Straβe 65, D-88397 Biberach, Germany).
IPR-pNA: S-2288, Chromogenix-Instrumentation Laboratory SpA.
as §5

T3 sequence (P00747 581-810 limits assumed): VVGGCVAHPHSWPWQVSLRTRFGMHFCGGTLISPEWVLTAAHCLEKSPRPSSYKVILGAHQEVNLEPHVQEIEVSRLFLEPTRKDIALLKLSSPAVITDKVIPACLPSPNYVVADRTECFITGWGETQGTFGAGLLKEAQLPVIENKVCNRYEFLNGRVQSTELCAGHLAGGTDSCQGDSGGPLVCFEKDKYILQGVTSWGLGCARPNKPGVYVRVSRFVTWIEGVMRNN
T3 sequence (P00747 97-580 limits assumed): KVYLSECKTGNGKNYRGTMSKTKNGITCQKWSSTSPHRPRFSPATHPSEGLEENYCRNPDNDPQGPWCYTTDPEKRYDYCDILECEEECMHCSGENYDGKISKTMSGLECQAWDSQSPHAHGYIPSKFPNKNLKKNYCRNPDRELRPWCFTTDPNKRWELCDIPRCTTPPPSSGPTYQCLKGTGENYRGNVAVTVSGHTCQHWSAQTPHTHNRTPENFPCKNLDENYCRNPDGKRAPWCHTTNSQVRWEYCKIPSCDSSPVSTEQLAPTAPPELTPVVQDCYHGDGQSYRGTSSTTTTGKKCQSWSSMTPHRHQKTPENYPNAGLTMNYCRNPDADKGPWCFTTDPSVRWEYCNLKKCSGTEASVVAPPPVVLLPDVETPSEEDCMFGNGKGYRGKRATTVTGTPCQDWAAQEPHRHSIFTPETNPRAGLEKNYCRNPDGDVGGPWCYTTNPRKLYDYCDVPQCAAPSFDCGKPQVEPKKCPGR
T4 sequence (P00761 9-231): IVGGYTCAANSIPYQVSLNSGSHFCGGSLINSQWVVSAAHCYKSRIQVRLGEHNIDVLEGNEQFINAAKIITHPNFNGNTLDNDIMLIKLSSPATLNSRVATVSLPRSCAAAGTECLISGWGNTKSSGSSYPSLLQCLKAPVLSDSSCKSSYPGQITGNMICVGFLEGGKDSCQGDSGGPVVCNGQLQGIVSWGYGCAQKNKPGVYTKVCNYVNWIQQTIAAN
T9 sequence (P00750 36-562): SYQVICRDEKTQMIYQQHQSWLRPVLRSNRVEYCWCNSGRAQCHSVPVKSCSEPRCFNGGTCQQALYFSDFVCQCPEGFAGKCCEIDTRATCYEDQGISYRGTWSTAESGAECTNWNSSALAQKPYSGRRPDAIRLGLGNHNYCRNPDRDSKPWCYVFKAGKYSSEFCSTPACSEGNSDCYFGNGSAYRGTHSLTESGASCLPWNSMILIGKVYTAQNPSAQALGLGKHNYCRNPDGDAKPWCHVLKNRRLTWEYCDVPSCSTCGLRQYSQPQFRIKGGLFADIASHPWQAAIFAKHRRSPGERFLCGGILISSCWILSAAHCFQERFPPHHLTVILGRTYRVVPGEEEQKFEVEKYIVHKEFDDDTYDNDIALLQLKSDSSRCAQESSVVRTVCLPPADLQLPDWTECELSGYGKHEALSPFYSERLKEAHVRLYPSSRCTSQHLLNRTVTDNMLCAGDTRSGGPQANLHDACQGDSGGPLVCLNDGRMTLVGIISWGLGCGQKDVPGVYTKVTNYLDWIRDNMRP
T2 sequence (P00752 8-246): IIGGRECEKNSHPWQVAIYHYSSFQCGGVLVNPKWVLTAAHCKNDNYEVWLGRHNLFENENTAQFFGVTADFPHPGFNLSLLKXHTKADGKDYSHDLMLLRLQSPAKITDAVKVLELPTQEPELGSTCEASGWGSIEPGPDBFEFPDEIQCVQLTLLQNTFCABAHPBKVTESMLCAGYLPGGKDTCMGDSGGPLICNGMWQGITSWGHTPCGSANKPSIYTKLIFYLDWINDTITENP
T5 sequence (P00743 234-492 limits assumed): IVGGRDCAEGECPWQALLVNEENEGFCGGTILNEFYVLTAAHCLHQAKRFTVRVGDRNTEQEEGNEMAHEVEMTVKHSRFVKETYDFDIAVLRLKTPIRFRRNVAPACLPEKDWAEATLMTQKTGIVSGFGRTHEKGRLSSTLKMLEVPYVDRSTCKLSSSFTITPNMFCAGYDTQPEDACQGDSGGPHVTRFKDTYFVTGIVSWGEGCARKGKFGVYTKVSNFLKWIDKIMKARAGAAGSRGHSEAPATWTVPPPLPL
T5 sequence (P00743 41-180 limits assumed): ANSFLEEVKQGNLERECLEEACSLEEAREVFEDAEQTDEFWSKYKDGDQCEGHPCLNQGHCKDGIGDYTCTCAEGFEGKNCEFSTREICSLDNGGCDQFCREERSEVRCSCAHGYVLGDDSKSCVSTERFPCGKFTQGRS

IC50 (mouse neurotrypsin): ~60 µM | inhibitory activity on neurotrypsin (neurotrypsin): significant inhibitory activity
Structure (SMILES): N=C(N)NS(=O)(=O)c1ccc(N=Cc2cc(Br)cc(Br)c2O)cc1 [Compound No. 7, N^1-amidino-N^4-(3,5-dibromosalicylidene)-sulfanilamide]
inhibition of kallikrein (initial velocities) (Kallikrein): None of the investigated enzymes showed a significant inhibition; also recorded: No inhibition | inhibition of plasmin (initial velocities) (Plasmin): None of the investigated enzymes showed a significant inhibition; also recorded: No inhibition | inhibition of trypsin (initial velocities) (Trypsin): None of the investigated enzymes showed a significant inhibition; also recorded: No inhibition | inhibition of factor Xa (initial velocities) (Factor Xa): None of the investigated enzymes showed a significant inhibition; also recorded: No inhibition | inhibition of urokinase (initial velocities) (Urokinase): None of the investigated enzymes showed a significant inhibition; also recorded: No inhibition | inhibition of thrombin (initial velocities) (Thrombin): None of the investigated enzymes showed a significant inhibition; also recorded: No inhibition | inhibition of tPA (initial velocities) (tPA): None of the investigated enzymes showed a significant inhibition; also recorded: No inhibition
